According to US10064861B2, “Macrocyclic pyridazinone derivatives” (Merck Patent GmbH, priority 2013, dated 2018):
Read-outs that look alike come from different tables or passages of the source.

Experiments:
[1] = amide bond, DMF, 25.0 °C
IRAK1 = IRAK1 (Homo sapiens (Human), UniProt P51617); assay: IRAK1 enzymatic assay; format: biochemical; settings: His-TEV-IRAK-1, ATP 1 μM, 3 hours at 30° C.
Description: IRAK1 is a human purified recombinant enzyme (His-TEV-IRAK1 (194-712)) In this assay, IRAK-1 hydrolyses ATP and autophosphorylates.
Measurement of IRAK-1 inhibition is performed in streptavidin coated 384 well FlashPlate (PerkinElmer #SMP410A).
His-TEV-IRAK-1 (15 ng/well), ATP (1 μM, [^33P]ATP 0.25 μCi/well) and compounds in DMSO (range of concentrations from 20 μM to 1 nM) or controls (2% DMSO) are incubated for 3 hours at 30° C. in assay buffer: Hepes pH 7.0 50 mM, Fatty acid-free BSA 0.1%, Dithiothreitol DTT 2 mM, MgCl2 10 mM, EGTA 0.5 mM, Triton-X-100 0.01%. Kinase reaction is stopped by addition of EDTA. Supernatant is discarded, plates are washed three times with 150 mM NaCl and radioactivity is then measured in a Microbeta Trilux reader.

IRAK4 = IRAK4 (Homo sapiens (Human), UniProt Q9NWZ3); assay: IRAK4 enzymatic assay; format: biochemical; settings: His-TEV-IRAK4, ATP 2 μM, STK1-biotin peptide 300 nM, 3 hours at 30° C.
Chain of IRAK4 (Q9NWZ3 whole entry): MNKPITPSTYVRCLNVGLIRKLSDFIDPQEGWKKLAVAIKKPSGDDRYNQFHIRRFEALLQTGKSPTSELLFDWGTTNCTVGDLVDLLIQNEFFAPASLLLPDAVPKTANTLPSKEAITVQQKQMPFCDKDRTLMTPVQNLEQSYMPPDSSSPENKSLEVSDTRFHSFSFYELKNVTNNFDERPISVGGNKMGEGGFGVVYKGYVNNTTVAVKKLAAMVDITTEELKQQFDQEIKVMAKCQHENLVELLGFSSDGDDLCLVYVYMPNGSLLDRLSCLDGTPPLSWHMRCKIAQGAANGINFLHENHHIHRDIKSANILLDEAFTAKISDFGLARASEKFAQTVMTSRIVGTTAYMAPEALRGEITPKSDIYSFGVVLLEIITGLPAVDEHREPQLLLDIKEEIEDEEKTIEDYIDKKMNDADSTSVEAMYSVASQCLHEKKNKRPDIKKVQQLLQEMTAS
Description: IRAK4 is a human purified recombinant enzyme (His-TEV-IRAK1 (194-712) IRAK4 hydrolyses ATP, autophosphorylates and phosphorylates a Serine/Threonine generic peptidic substrate (STK: 61ST1BLC from CisBio International based in Bagnols/Cèze FR).
Measurement of IRAK-4 inhibition is performed in streptavidin coated 384 well FlashPlate (PerkinElmer #SMP410A). His-TEV-IRAK4 (20 ng/well), ATP (2 μM, [^33P]ATP 0.25 μCi/well), STK1-biotin peptide (300 nM) and compounds in DMSO (range of concentrations from 20 μM to 1 nM) or controls (2% DMSO) are incubated for 3 hours at 30° C. in assay buffer: Hepes pH 7.0 50 mM, Fatty acid-free BSA 0.1%, Dithiothreitol DTT 2 mM, MgCl2 10 mM, EGTA 0.5 mM, Tween-20 0.01%, MnCl2 5 mM.
Kinase reaction is stopped by addition of EDTA. Supernatant is discarded, plates are washed three times with 150 mM NaCl and radioactivity is then measured in a Microbeta Trilux reader.

[2] = system: TLR7 induced IL-6 secretion in human mononuclear cells (PBMC's); assay: TLR7 induced IL-6 in human PBMC's; format: cell-based; settings: TLR7 specific ligand 2 uM overnight, IL-6 AlphaLISA
Description: TLR7 Induced IL-6 in Human PBMC's
Human PBMC assay is used as one of the functional assay to monitor the activity of IRAK1 and IRAK4 small molecule inhibitors on TLR7 induced IL-6 secretion in human mononuclear cells (PBMC's). Human PBMCs are prepared from buffy coats (whole blood enriched with leukocytes and platelets) obtained from healthy volunteers used either fresh or frozen are plated in assay media (RPMI+2% P/S/L-glu+10% HI-FBS) and pre-treated with compounds in DMSO/media (range of concentrations from 25 μM to 0.4 nM) or controls (0.25% DMSO) for 30 minutes at 37° C. in assay media. Following pre-treatment with IRAK1 and IRAK4 inhibitors, PBMC's are stimulated with TLR7 specific ligand (2 uM) overnight (16-18 hrs) at 37° C. After incubation supernatant is transferred to 384 well PE AlphaPlate-384 (6005350) and IL-6 is quantified using Perkin Elmer IL-6 Alpha LISA kit (AL223C). Plates are read on an Envision® plate reader with Alpha Technology®.

[3] = amide bond, DMF, 25.0 °C; remark: listed apart in the source

Chain of IRAK1 (P51617 194-712): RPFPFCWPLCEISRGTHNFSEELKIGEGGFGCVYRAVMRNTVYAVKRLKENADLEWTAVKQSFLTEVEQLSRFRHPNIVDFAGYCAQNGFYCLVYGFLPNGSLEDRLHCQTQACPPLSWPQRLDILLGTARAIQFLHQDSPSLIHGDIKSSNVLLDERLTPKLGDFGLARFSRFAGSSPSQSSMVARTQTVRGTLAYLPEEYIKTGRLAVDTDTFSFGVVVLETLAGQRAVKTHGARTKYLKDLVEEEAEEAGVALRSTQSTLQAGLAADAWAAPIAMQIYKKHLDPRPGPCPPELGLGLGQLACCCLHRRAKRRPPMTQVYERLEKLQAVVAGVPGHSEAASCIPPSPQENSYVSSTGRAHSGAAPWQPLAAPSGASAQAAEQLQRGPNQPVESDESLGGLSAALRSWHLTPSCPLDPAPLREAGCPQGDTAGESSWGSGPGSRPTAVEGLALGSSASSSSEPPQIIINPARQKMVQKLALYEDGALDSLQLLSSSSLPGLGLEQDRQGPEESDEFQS

Structure (SMILES)	IC50 (IRAK1)	IC50 (IRAK4)	ring closure, isolated yield ([1]; from Nc1nc2ccccc2n1CC(O)C1CCCN(c2ccc(=O)n(Cc3cccc(C(=O)[O-])c3)n2)C1, 16-membered ring, HATU/HOAt/DMAP/DIEA, 1.27 mM)	IC50 [2]	ring closure, yield of all isomers ([3]; from Nc1nc2ccccc2n1CC(O)CCOc1ccc(=O)n(Cc2cccc(C(=O)O)c2)n1, HATU/HOAt/DMAP/DIPEA, 2.44 mM, 14.0 h)	ring closure, isolated yield ([1]; from potassium 3-{3-[4-(2-Amino-benzoimidazol-1-yl)-3-hydroxy-butoxy]-6-oxo-6H-pyridazin-1-ylmethyl}-benzoic acetate, 16-membered ring, HATU/HOAt/DMAP/DIEA, 2.4 mM)	ring closure, yield of all isomers ([3]; from Nc1nc2ccccc2n1Cc1cccc(-c2ccc(=O)n(Cc3cccc(C(=O)O)c3)n2)c1, HBTU/HOBt/N-methylmorpholine, 10.0 mM, 15.0 h)	ring closure, isolated yield ([1]; from Nc1nc2ccccc2n1Cc1cccc(-c2ccc(=O)n(Cc3cccc(C(=O)[O-])c3)n2)c1, 15-membered ring, HBTU/HOBt/NMM, 10.0 mM)
O=C1Nc2nc3ccccc3n2CC(O)C2CCCN(C2)c2ccc(=O)n(n2)Cc2cccc1c2 (centres unmarked)			16%					
O=C1Nc2nc3ccccc3n2C[C@H](O)[C@H]2CCCN(C2)c2ccc(=O)n(n2)Cc2cccc1c2 (stereo in doubt) [Compound 32b, 25-hydroxy-1,6,14,16,23,32-hexaazahexacyclo[24.3.1.1^2,6.1^8,12.0^15,23.0^17,22]dotriaconta-2(32),3,8(31),9,11,15,17(22),18,20-nonaene-5,13-dione]	< 100 nM	< 100 nM		100 to 1000 nM				
CC(=O)NCCc1ccc2c(c1)nc1n2Cc2cccc(c2)-c2ccc(=O)n(n2)Cc2cccc(c2)C(=O)N1 [Compound 25]	< 100 nM	< 100 nM		< 100 nM				
O=C1Nc2nc3ccccc3n2CC(O)CCOc2ccc(=O)n(n2)Cc2cccc1c2 (centres unmarked) [Compound 18, 20-hydroxy-23-oxa-1,9,11,18,28-pentaazapentacyclo[22.3.1.1^3,7.0^10,18.0^12,17]nonacosa-3,5,7(29),10,12(17),13,15,24(28),25-nonaene-8,27-dione]	< 100 nM	< 100 nM		100 to 1000 nM	7%	7%		
COc1cc2nc3n(c2cc1OC)Cc1cccc(c1)-c1ccc(=O)n(n1)Cc1cccc(c1)C(=O)N3 [Compound 5, 11,12-dimethoxy-8,15,17,25,29-pentaazahexacyclo[23.3.1.1^2,61^19,23.0^8,16.0^9,14]hentriaconta-1(29),2(31),3,5,9(14),10,12,15,19(30),20,22,27-dodecaene-18,26-dione]	< 100 nM	< 100 nM		< 100 nM				
O=C1Nc2nc3ccccc3n2C[C@H](O)[C@@H]2CCCN(C2)c2ccc(=O)n(n2)Cc2cccc1c2 (stereo in doubt) [Compound 32a, 25-hydroxy-1,6,14,16,23,32-hexaazahexacyclo[24.3.1.1^2,6.1^8,12.0^15,23.0^17,22]dotriaconta-2(32),3,8(31),9,11,15,17(22),18,20-nonaene-5,13-dione]	< 100 nM	< 100 nM		100 to 1000 nM				
O=C(O)c1ccc2c(c1)nc1n2Cc2cccc(c2)-c2ccc(=O)n(n2)Cc2cccc(c2)C(=O)N1 [Compound 21]	< 100 nM	< 100 nM		100 to 1000 nM				

Further lines, with some results ahead:

IC50 (IRAK1)	IC50 (IRAK4)	Structure (SMILES)	ring closure, isolated yield ([1]; from Nc1nc2ccccc2n1CC(O)C1CCCN(c2ccc(=O)n(Cc3cccc(C(=O)[O-])c3)n2)C1, 16-membered ring, HATU/HOAt/DMAP/DIEA, 1.27 mM)	IC50 [2]	ring closure, yield of all isomers ([3]; from Nc1nc2ccccc2n1CC(O)CCOc1ccc(=O)n(Cc2cccc(C(=O)O)c2)n1, HATU/HOAt/DMAP/DIPEA, 2.44 mM, 14.0 h)	ring closure, isolated yield ([1]; from potassium 3-{3-[4-(2-Amino-benzoimidazol-1-yl)-3-hydroxy-butoxy]-6-oxo-6H-pyridazin-1-ylmethyl}-benzoic acetate, 16-membered ring, HATU/HOAt/DMAP/DIEA, 2.4 mM)	ring closure, yield of all isomers ([3]; from Nc1nc2ccccc2n1Cc1cccc(-c2ccc(=O)n(Cc3cccc(C(=O)O)c3)n2)c1, HBTU/HOBt/N-methylmorpholine, 10.0 mM, 15.0 h)	ring closure, isolated yield ([1]; from Nc1nc2ccccc2n1Cc1cccc(-c2ccc(=O)n(Cc3cccc(C(=O)[O-])c3)n2)c1, 15-membered ring, HBTU/HOBt/NMM, 10.0 mM)
< 100 nM	< 100 nM	O=C1Nc2nc3ccccc3n2Cc2cc(ccc2O)-c2ccc(=O)n(n2)Cc2cccc1c2 [Compound 20, 5-hydroxy-8,15,17,25,29-pentaazahexacyclo[23.3.1.1^2,6.1^19,23.08,16.0^9,14]hentriaconta-1(29),2(31),3,5,9(14),10,12,15,19(30),20,22,27-dodecaene-18,26-dione]		< 100 nM				
< 100 nM	< 100 nM	Cc1ccc2cc1-c1ccc(=O)n(n1)Cc1cccc(c1)C(=O)Nc1nc3ccccc3n1C2 [Compound 8, 3-Methyl-8,15,17,25,29-pentaazahexacyclo[23.3.1.1^2,61^19,230^8,160^9,14]hentriaconta-1(29),2(31),3,5,9(14),10,12,15,19(30),20,22,27-dodecaene-18,26-dione]		100 to 1000 nM				
< 100 nM	< 100 nM	O=C1Nc2nc3ccccc3n2CCc2cccc(c2)-c2ccc(=O)n(n2)Cc2cccc1c2 [Compound 2, 6,14,16,23,32-pentaazahexacyclo[24.3.1.1^2,6.1^8,12.0^15,23.0^17,22]dotriaconta-1(30),2(32),3,8,10,12(31),15,17(22),18,20,26,28-dodecaene-5,13-dione]		100 to 1000 nM				
< 100 nM	< 100 nM	O=C1Nc2nc3ccccc3n2Cc2cccc(c2)-c2ccc(=O)n(n2)Cc2cccc1c2 [Compound 1, 8,15,17,25,29-pentaazahexacyclo[23.3.1.1^2,61^19,230^8,160^9,14]hentriaconta-1(29),2(31),3,5,9(14),10,12,15,19(30),20,22,27-dodecaene-18,26-dione]		100 to 1000 nM			26%	26%
< 100 nM	< 100 nM	O=C1Nc2nc3ccccc3n2CC(O)c2cccc(c2)-c2ccc(=O)n(n2)Cc2cccc1c2 (centres unmarked) [Compound 17]		< 100 nM				
